Measurements taken from US12268690B2, “Treatments for mutations in acute myeloid leukemia” (OREGON HEALTH & SCIENCE UNIVERSITY, priority 2018, dated 2025).

Tested on: freshly isolated mononuclear cells from AML samples
Test: Ex vivo functional drug screen (MTS viability, AUC) on primary AML samples, compared by mutation or clinical group
Format: cell-based, human
Conditions: for correlation of mutation with drug sensitivity: mutation of RUNX1
From the text: This panel contained graded concentrations of a drugs with activity against two-thirds of the tyrosine kinome as well as other non-tyrosine kinase pathways, including MAPKs, PI3K/AKT/mTOR, AMPK, ATM, Aurora kinases, CAMKs, CDKs, GSK3a/b, IκK, PKA, PKC, PLK1, and RAF. In addition, the library contained small molecule inhibitors with activity against the BCL2 family, BRD4, Hedgehog, HSP90, NOTCH/gamma-secretase, proteasome, survivin, STAT3, and WNT/beta-catenin. Drug sensitivity patterns were analyzed with respect to clinical and genetic features of tumors. We compared the average area-under-the curve (AUC) values for each drug between the de novo and transformed samples via a series of single factor ANOVAs. […] In addition, we analyzed the concordance of drug sensitivity patterns with respect to predicted target gene, gene family, or pathway for each drug. […] To create a global view of overall sensitivity or resistance of each case, we generated a heatmap of binary sensitive/resistant calls for each sample to each drug.
Correlation of drug sensitivity with mutational events was performed by assessing the range of sensitivity of cases with mutation of an individual gene (as well as co-occurring mutational events) versus cases with wild type sequence for that same gene. […] The difference in average drug sensitivity of mutant versus wild type cases for each drug/mutation pair was plotted on the horizontal axis of a volcano plot with a test for statistical significance of the comparison plotted on the vertical axis (corrected for multiple comparison false discovery rate^42; FIG. 4). […] To aid in discovery of potential mutational biomarkers of drug sensitivity, we plotted volcano plots that were specific to each individual drug (versus all possible mutational events) and for each individual gene (versus all possible drugs tested).
Ex vivo drug screens were performed on freshly isolated mononuclear cells from AML samples as previously described^41.
Ex vivo functional drug screens were performed on freshly isolated mononuclear cells from AML samples. […] Drug plates were created using inhibitors purchased from LC Laboratories and Selleck Chemicals and master stocks were reconstituted in DMSO and stored at −80° C. […] DMSO control wells and positive control wells containing a drug combination of Flavopiridol, Staurosporine and Velcade were placed on each plate, with the final concentration of DMSO ≤0.1% in all wells. Daughter plates were created using a V&P Scientific 384-well pin tool head operated by the Caliper Sciclone ALH 3000 and equipped with 0.457 mm diameter, 30 nanoliter, slotted stainless steel pins (cat num: FP1NS30). Daughter and destination plates were sealed with pealable thermal seals using a PlateLoc thermal sealer. Destination plates were stored at −20° C. for no more than three months and thawed immediately before use. Primary mononuclear cells were plated across single-agent inhibitor panels within 24 h of collection. […] After 3 d of culture at 37° C. in 5% CO2, MTS reagent (CellTiter96 AQueous One; Promega) was added, optical density was measured at 490 nm, and raw absorbance values were adjusted to a reference blank value and then used to determine cell viability (normalized to untreated control wells).
A given sample was run on one or more panels and within each panel, the majority of drugs were run without within-panel replicates. […] An additional set of ‘curve-free’ AUCs was computed for sample-inhibitor pairs run on multiple panels.
Based on the methodology used in our prior drug combination study^36, a probit regression was fit to all possible run groups using the model: (normalized_viability/100)˜1+log 10(concentration) Where for all groups there were N=7 dose-response measurements. The summary measures of curve fit were inspected and cutoffs were devised removing all runs with an AIC >12 and deviance >2.

**Q.** How did the “drug sensitivity mutant vs wild type (average difference in AUC; top left quadrant of volcano plot)” value (PML.RARA) turn out when `CN(C)CC[C@H](CSc1ccccc1)Nc1ccc(S(=O)(=O)NC(=O)c2ccc(N3CCN(Cc4ccccc4-c4ccc(Cl)cc4)CC3)cc2)cc1[N+](=O)[O-]` [ABT-737] was run?
**A.** The value was “ABT-737”.

**Q.** Which “drug sensitivity mutant vs wild type (average difference in AUC; top left quadrant of volcano plot)” value (NPM1:SRSF2:IDH2) does the source give for `Cc1cc(Nc2nc(N[C@@H](C)c3ncc(F)cn3)ncc2Cl)n[nH]1` [AZD1480] here?
**A.** The value was “AZD1480”.

**Q.** What does the source list for `Cn1c(=O)n(-c2ccc(C(C)(C)C#N)cc2)c2c3cc(-c4cnc5ccccc5c4)ccc3ncc21` [BEZ2345]?
**A.** drug sensitivity mutant vs wild type (average difference in AUC; top left quadrant of volcano plot) (RUNX1): BEZ2345; correlation of mutation with drug sensitivity: correlated with sensitivity

**Q.** `Cc1ccc2nc(NCCN)c3ncc(C)n3c2c1` [BMS-345541, N′-(1,8-dimethyl-4-imidazo[1,2-a]quinoxalinyl)ethane-1,2-diamine] was tested. Which “drug sensitivity mutant vs wild type (average difference in AUC; top left quadrant of volcano plot)” value (PDS5B) did it give?
**A.** Its value is “BMS-345541”.

**Q.** How did the “drug sensitivity mutant vs wild type (average difference in AUC; top left quadrant of volcano plot)” value (SMC1A) turn out when `CC(C)(C)c1ccc(S(=O)(=O)/C=C/C#N)cc1` [Bay 11-7085] was run?
**A.** Its value is “Bay 11-”.

**Q.** For `O=C(NOCC1CC1)c1ccc(F)c(F)c1Nc1ccc(I)cc1Cl` [CI-1040], which “drug sensitivity mutant vs wild type (average difference in AUC; top left quadrant of volcano plot)” value (DNMT3A:NRAS) is on record?
**A.** Its value is “CI-1040 (PD184352)”.

**Q.** And the “drug sensitivity mutant vs wild type (average difference in AUC; top left quadrant of volcano plot)” value (NPM1:DNMT3A:NRAS)?
**A.** Its value is “CI-1040”.

**Q.** What about the “drug sensitivity mutant vs wild type (average difference in AUC; top left quadrant of volcano plot)” value (NPM1:NRAS) of the same compound?
**A.** Its value is “CI-1040 (PD184352)”.

**Q.** And the “drug sensitivity mutant vs wild type (average difference in AUC; top left quadrant of volcano plot)” value (NRAS)?
**A.** The value was “CI-1040”.

**Q.** What does the source list for `COc1cc2c(Oc3ccc4[nH]c(C)cc4c3F)ncnc2cc1OCCCN1CCCC1` [Cediranib]?
**A.** drug sensitivity mutant vs wild type (average difference in AUC; top left quadrant of volcano plot) (FLT3_ITD:RUNX1): cediranib; drug sensitivity mutant vs wild type (average difference in AUC; top left quadrant of volcano plot) (RUNX1): Cediranib; drug sensitivity mutant vs wild type (average difference in AUC; top left quadrant of volcano plot) (U2AF1): Cediranib (AZD2171); correlation of mutation with drug sensitivity: correlated with sensitivity

**Q.** With `CC1(COc2ccc3c(c2)ncn3-c2ccc3cccc(N4CCC(N)CC4)c3n2)COC1` [Crenolanib] as the compound, how does the “drug sensitivity mutant vs wild type (average difference in AUC; top left quadrant of volcano plot)” value (CBFB.MYH11) read?
**A.** Its value is “Crenolanib”.

**Q.** And the “drug sensitivity mutant vs wild type (average difference in AUC; top left quadrant of volcano plot)” value (DNMT3A:FLT3)?
**A.** The value was “Crenolanib”.

**Q.** And the “drug sensitivity mutant vs wild type (average difference in AUC; top left quadrant of volcano plot)” value (NPM1)?
**A.** The value was “crenolanib”.

**Q.** What about the “drug sensitivity mutant vs wild type (average difference in AUC; top left quadrant of volcano plot)” value (NPM1:DNMT3A) of the same compound?
**A.** The value was “Crenolanib”.

**Q.** With `C[C@@H](Oc1cc(-c2cnn(C3CCNCC3)c2)cnc1N)c1c(Cl)ccc(F)c1Cl` [Crizotinib] as the compound, how does the “drug sensitivity mutant vs wild type (average difference in AUC; top left quadrant of volcano plot)” value (BCOR) read?
**A.** Its value is “Crizotinib”.

**Q.** What about the “drug sensitivity of mutant cases” value (BCOR mutation alone) of the same compound?
**A.** Its value is “did show sensitivity”.

**Q.** What about the “drug sensitivity mutant vs wild type (average difference in AUC; top left quadrant of volcano plot)” value (FLT3_ITD) of the same compound?
**A.** The value was “crizotinib”.

**Q.** And the “drug sensitivity mutant vs wild type (average difference in AUC; top left quadrant of volcano plot)” value (FLT3_ITD:SRSF2)?
**A.** The value was “crizotinib”.

**Q.** What about the “drug sensitivity mutant vs wild type (average difference in AUC; top left quadrant of volcano plot)” value (IDH2) of the same compound?
**A.** Its value is “Crizotinib”.

**Q.** What about the “drug sensitivity mutant vs wild type (average difference in AUC; top left quadrant of volcano plot)” value (NPM1:CEBPA) of the same compound?
**A.** Its value is “Crizotinib”.

**Q.** And the “drug sensitivity mutant vs wild type (average difference in AUC; top left quadrant of volcano plot)” value (NPM1:FLT3_ITD)?
**A.** The value was “crizotinib”.

**Q.** What about the “drug sensitivity mutant vs wild type (average difference in AUC; top left quadrant of volcano plot)” value (SMC1A) of the same compound?
**A.** Its value is “crizotinib”.

**Q.** What about the “drug sensitivity mutant vs wild type (average difference in AUC; top left quadrant of volcano plot)” value (SRSF2:IDH2) of the same compound?
**A.** The value was “Crizotinib”.

**Q.** Which results are given for `C[C@H](NC(=O)Cc1cc(F)cc(F)c1)C(=O)N[C@@H]1C(=O)N(C)c2ccccc2-c2ccccc21` [DBZ, N-[(1S)-2-[[(7S)-6,7-Dihydro-5-methyl-6-oxo-5H-dibenz[b,d]azepin-7-yl]amino]-1-methyl-2-oxoethyl]-3,5-difluorobenzeneacetamide]?
**A.** drug sensitivity mutant vs wild type (average difference in AUC; top left quadrant of volcano plot) (FLT3_ITD:IDH1): DBZ; drug sensitivity mutant vs wild type (average difference in AUC; top left quadrant of volcano plot) (IDH2): DBZ; drug sensitivity mutant vs wild type (average difference in AUC; top left quadrant of volcano plot) (NPM1): DBZ; drug sensitivity mutant vs wild type (average difference in AUC; top left quadrant of volcano plot) (NPM1:IDH2): DBZ; drug sensitivity mutant vs wild type (average difference in AUC; top left quadrant of volcano plot) (NPM1:SRSF2): DBZ; drug sensitivity mutant vs wild type (average difference in AUC; top left quadrant of volcano plot) (NPM1:SRSF2:IDH2): DBZ
